According to patent publication US10703746B2, “Mutant IDH1 inhibitors useful for treating cancer” (THE UNITED STATES OF AMERICA, AS REPRESENTED BY THE …, priority 2014, dated 2020):

How the values were obtained:
IDH1 R132C = IDH1 R132C (Homo sapiens, UniProt O75874, R132C); assay: IDH1 R132C enzymatic assay (NADPH depletion coupled to diaphorase/resazurin); assay type: biochemical
Method in brief: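 NADPH depletion, read via diaphorase/resazurin coupling, after adding substrate at 0.6 mM α-KG and 0.012 mM NADPH. Beforehand, 0.00032 mg/mL enzyme sat with compound 30 min at room temperature in pH 6.5 potassium phosphate buffer with MgCl2, glycerol and BSA.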

IDH1 R132H = IDH1 R132H (Homo sapiens, UniProt O75874, R132H); assay: IDH1 R132H enzymatic assay (NADPH depletion coupled to diaphorase/resazurin); assay type: biochemical
Chain of IDH1 R132H (O75874 whole entry R132H): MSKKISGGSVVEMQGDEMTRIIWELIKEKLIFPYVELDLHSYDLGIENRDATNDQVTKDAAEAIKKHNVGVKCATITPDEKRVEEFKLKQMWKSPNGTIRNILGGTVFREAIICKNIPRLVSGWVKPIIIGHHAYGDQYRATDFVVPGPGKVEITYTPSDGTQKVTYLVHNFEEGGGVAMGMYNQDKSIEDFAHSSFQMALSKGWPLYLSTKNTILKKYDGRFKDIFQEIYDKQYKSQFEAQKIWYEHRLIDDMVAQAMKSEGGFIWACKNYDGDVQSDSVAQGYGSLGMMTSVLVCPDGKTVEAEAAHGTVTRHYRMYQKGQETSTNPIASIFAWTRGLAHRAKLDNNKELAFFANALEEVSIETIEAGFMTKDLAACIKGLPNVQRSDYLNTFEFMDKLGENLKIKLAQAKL

[1] = enzymatic inhibition, IDH1 R132C
[2] = enzymatic inhibition, IDH1 R132H
[3] = IDH1 R132C enzymatic inhibition, IC50 class
[4] = IDH1 R132H enzymatic inhibition, IC50 class

Chain of IDH1 R132C (O75874 whole entry R132C): as the sequence (O75874 whole entry R132H) above, with H132C counted along it

Row | Structure (SMILES) | IC50 (IDH1 R132C; [1]) [nM] | IC50 (IDH1 R132H; [2]) [nM] | IC50 (IDH1 R132C; [3]) [nM] | IC50 (IDH1 R132H; [4]) [nM]
1 | CCc1cccc(CC)c1-n1c(CC(C)C)c(C(=O)N2CCNCC2)cc(-c2nc(-c3ccc(Cl)cc3)c(C(=O)N(C)C)s2)c1=O [Compound 464] | 1000 to 5000 | 300 to 1000 |  | 
2 | CCc1cccc(CC)c1-n1c2c(cc(-c3nc(-c4ccccn4)cs3)c1=O)C(=O)CC(C)(C)C2 [Compound 200] |  |  | 1000 to 5000 | 5000 to 20000
3 | COc1ccc(Cl)c(-n2c3c(cc(-c4nc(-c5ccc(Cl)cc5)cs4)c2=O)C(=O)CC(C)(C)C3)c1 [Compound 395] |  |  | < 300 | 300 to 1000
4 | COc1ccc(OC)c(-n2c3c(cc(C(=O)NCc4ccc(Cl)cc4)c2=O)C(=O)CC(C)(C)C3)c1 [Compound 93] |  |  | 5000 to 20000 | 5000 to 20000
5 | CCOc1ccccc1-n1c2c(cc(-c3nc(-c4ccc(Cl)cc4)cs3)c1=O)C(=O)CC(C)(C)C2 [Compound 212] |  |  | 300 to 1000 | 300 to 1000
6 | CCc1cccc(CC)c1-n1c(CC(C)C)c(C(=O)N2CCNCC2)cc(-c2ccn(-c3ccc(C(F)(F)F)cc3)n2)c1=O [Compound 640] |  |  | < 300 | < 300
7 | CCc1cccc(CC)c1-n1c(C2CCCO2)c(C(=O)N2CCNCC2)cc(-c2nc(-c3ccc(Cl)cc3)cs2)c1=O (centres unmarked) [Compound 457] | < 300 | < 300 |  | 
8 | CC(C)=Cc1c(C(=O)N2CCNCC2)cc(-c2nc(-c3ccc(Cl)cc3)cs2)c(=O)n1-c1cc(Cl)cnc1OC(C)C [Compound 602] | < 300 | < 300 |  | 
9 | CCc1cccc(CC)c1-n1c(C(C)C)c(C(=O)N2CCNC(C(=O)OC)C2)cc(-c2nc(-c3ccc(Cl)cc3)cs2)c1=O (centres unmarked) [Compound 31] |  |  | 300 to 1000 | 1000 to 5000
10 | CCc1cccc(CC)c1-n1c(C=C(C)C)c(C(=O)N2CCNC[C@H]2C)cc(-c2nc(-c3ccc(C(F)(F)F)cc3)cs2)c1=O [Compound 533] | < 300 | < 300 |  | 
11 | CCc1cccc(CC)c1-n1c(C)c(C(=O)N2CC(N)C2)cc(-c2nc(-c3ccc(Cl)cc3)cs2)c1=O [Compound 139] |  |  | 1000 to 5000 | 1000 to 5000
12 | CCc1cccc(CC)c1-n1c(C=C(C)C)c(C(=O)N2CCNCC2)cc(-c2ccn(-c3ccc(C(F)(F)F)cc3)n2)c1=O [Compound 511] | < 300 | < 300 |  | 
13 | COc1cccc(OC)c1-n1c(CC(C)C)c(C(=O)N2CCNCC2)cc(-c2nc(-c3ccc(Cl)cc3)cs2)c1=O [Compound 461] | 300 to 1000 | < 300 |  | 
14 | CCc1cccc(CC)c1-n1c(C)c(C(=O)N2CCC(C(=O)O)C2)cc(-c2nc(-c3ccc(Cl)cc3)cs2)c1=O (centres unmarked) [Compound 36] |  |  | > 20000 | > 20000
15 | COc1ccccc1-n1c2c(cc(-c3nc(-c4ccc(Cl)cc4)cs3)c1=O)C(=O)CC(C)(C)C2 [Compound 12] |  |  | 1000 to 5000 | 1000 to 5000
16 | CCc1cccc(CC)c1-n1c(C=C(C)C)c(C(=O)N2CCNC(=O)C2)cc(-c2ccn(-c3ccc(Cl)cc3)n2)c1=O [Compound 593] | < 300 | < 300 |  | 
17 | CCOc1ncc(F)cc1-n1c(C=C(C)C)c(C(=O)N2CCNCC2)cc(-c2nc(-c3ccc(Cl)cc3)cs2)c1=O [Compound 488] | < 300 | < 300 |  | 
18 | COc1ccc(OC)c(-n2c3c(cc(-c4nc(-c5ccc(Cl)cc5)cs4)c2=O)CCC(C)(C)C3)c1 [Compound 73] |  |  | 1000 to 5000 | 1000 to 5000
19 | CCc1cccc(CC)c1-n1c(C=C(C)C)c(C(=O)N2CCC3(CCNC3)C2)cc(-c2nc(-c3ccc(Cl)cc3)cs2)c1=O (centres unmarked) [Compound 320] |  |  | < 300 | 300 to 1000
20 | CCc1cccc(CC)c1-n1c(CC(C)C)c(C(=O)N2CCNC(C(=O)OC)C2)cc(-c2nc(-c3ccc(Cl)cc3)cs2)c1=O (centres unmarked) [Compound 117] |  |  | < 300 | 1000 to 5000
21 | CCc1cccc(CC)c1-n1c(C=C(C)C)c(C(=O)N2CCNC(CCO)C2)cc(-c2nc(-c3ccc(Cl)cc3)cs2)c1=O (centres unmarked) [Compound 371] |  |  | < 300 | < 300
22 | CC1(C)CC(=O)c2cc(-c3nc(-c4ccc(Cl)cc4)cs3)c(=O)n(C3CCCc4ccccc43)c2C1 (centres unmarked) [Compound 19] |  |  | 300 to 1000 | > 20000
23 | Cc1cccc(CN2CCN(C)CC2)c1-n1c2c(cc(-c3nc(-c4ccc(Cl)cc4)cs3)c1=O)C(=O)CC(C)(C)C2 [Compound 17] |  |  | 5000 to 20000 | 5000 to 20000
24 | CCc1cccc(CC)c1-n1c(CC(C)C)c(C(=O)N2CC(O)C2)cc(-c2nc(-c3ccc(Cl)cc3)cs2)c1=O [Compound 63] |  |  | 300 to 1000 | 1000 to 5000
25 | CC(=O)c1ccccc1-n1c2c(cc(-c3nc(-c4ccc(Cl)cc4)cs3)c1=O)C(=O)CC(C)(C)C2 [Compound 286] |  |  | 1000 to 5000 | 1000 to 5000
